The text below walks through data of publication PMC8448738, “Structural insight into the mechanism of energy transfer in cyanobacterial phycobilisomes” (Nature Communications, 2021).

The structures appear in SMILES notation.

What all share (test): cryo-EM structure of intact phycobilisome, […] Å
Holding throughout (format): binding

The target of assay [1] is T1, ApcB (Synechococcus 7002) (Picosynechococcus sp. PCC 7002, UniProt O68970).
T1 construct: native, within intact phycobilisome purified from cells; mildly glutaraldehyde cross-linked
T1 sequence (O68970 1-161): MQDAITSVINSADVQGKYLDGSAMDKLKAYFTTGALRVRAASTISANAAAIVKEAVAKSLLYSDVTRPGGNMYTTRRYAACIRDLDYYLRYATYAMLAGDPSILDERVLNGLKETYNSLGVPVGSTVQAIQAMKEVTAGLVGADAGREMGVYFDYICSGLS
Particulars: covalent; native chromophore.

The target in assay [2] is T2, ApcF (Synechococcus 7002) (Picosynechococcus sp. PCC 7002, UniProt O68967).
T2 construct: native, within intact phycobilisome purified from cells; mildly glutaraldehyde cross-linked; trimer A3
Particulars: covalent; native chromophore.

Assay [3] addresses T3, ApcE (LCM), Synechococcus 7002 (Picosynechococcus sp. PCC 7002, UniProt O68973).
T3 construct: native, within intact phycobilisome; N-terminal alpha-LCM domain holds the bilin; three REP domains
T3 sequence (O68973 1-886): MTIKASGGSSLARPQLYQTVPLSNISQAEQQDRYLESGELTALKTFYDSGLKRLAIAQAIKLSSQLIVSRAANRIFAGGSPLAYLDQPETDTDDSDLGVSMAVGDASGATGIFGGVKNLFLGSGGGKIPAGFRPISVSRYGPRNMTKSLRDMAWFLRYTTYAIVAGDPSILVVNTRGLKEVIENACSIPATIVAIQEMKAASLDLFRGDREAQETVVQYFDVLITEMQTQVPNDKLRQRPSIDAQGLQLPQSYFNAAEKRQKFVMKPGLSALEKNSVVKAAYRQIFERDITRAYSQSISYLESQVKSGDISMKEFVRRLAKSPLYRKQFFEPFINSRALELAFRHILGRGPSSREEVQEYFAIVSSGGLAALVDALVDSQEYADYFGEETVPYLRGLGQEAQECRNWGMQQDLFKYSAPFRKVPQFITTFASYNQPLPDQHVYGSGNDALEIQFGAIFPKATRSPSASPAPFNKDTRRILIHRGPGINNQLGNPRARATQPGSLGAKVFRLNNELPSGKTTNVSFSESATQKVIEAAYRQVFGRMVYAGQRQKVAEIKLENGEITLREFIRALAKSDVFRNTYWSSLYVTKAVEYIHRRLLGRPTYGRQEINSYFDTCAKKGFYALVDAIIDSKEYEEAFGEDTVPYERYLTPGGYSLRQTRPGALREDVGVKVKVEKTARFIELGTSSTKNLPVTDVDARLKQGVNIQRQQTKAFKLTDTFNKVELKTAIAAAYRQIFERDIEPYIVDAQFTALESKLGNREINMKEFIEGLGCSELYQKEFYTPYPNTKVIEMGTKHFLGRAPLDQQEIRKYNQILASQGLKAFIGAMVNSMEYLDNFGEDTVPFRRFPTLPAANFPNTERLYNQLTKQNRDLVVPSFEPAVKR
Particulars: covalent; native chromophore; in alpha-LCM domain.

For assay [4], the target named is T4, ApcA (Synechococcus 7002) (Picosynechococcus sp. PCC 7002, UniProt B1XQM2).
T4 construct: native, within intact phycobilisome purified from cells; mildly glutaraldehyde cross-linked
T4 sequence (B1XQM2 2-161): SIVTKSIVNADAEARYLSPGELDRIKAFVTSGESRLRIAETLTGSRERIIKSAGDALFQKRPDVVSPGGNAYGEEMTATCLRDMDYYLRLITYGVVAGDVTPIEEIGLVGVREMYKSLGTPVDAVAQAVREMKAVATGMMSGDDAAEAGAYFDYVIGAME
As to conditions: covalent; native chromophore.

The target in assay [5] is T5, ApcD (Synechococcus 7002) (Picosynechococcus sp. PCC 7002, UniProt O68966).
T5 construct: native, within intact phycobilisome purified from cells; mildly glutaraldehyde cross-linked; paired with ApcB in trimer A4
As to conditions: covalent; native chromophore.

Turning to `CC=C1C(=Cc2[nH]c(C=C3N=C(C=C4NC(=O)C(CC)=C4C)C(C)=C3CCC(=O)O)c(CCC(=O)O)c2C)NC(=O)C1C` (centres unmarked) [phycocyanobilin], the “cryo-EM structure of intact phycobilisome, 3.5 Å” value in assay [1] is “Y116 is located between αApcD and the bilin of ApcB^A4-II”; in assay [2], “The bilins of ApcF (orange), ApcE (red), and ApcA (forest green) are shown”; in assay [3] it was “The bilins of ApcF (orange), ApcE (red), and ApcA (forest green) are shown”; in assay [4] it was “The bilins of ApcF (orange), ApcE (red), and ApcA (forest green) are shown”; in assay [5] it was “Only the bilin of ApcD is shown with its ring-A through ring-D indicated”.
